Data taken from the NIST ThermoML archive (doi:10.1016/j.jct.2016.01.019).

Assay: refractive index (other wavelength) (dimensionless)
Details: 94.64 kPa, Liquid, Standard Abbe refractometry

CC(O)CO (stereo unspecified) [1,2-propanediol]
refractive index
Details | Wavelength=404.7 nm | Wavelength=435.8 nm | Wavelength=486.1 nm | Wavelength=546.1 nm | Wavelength=587.6 nm | Wavelength=632.8 nm | Wavelength=644 nm | Wavelength=706.5 nm
293.15 K | 1.445 | 1.44204 | 1.43722 | 1.43406 | 1.43227 | 1.43023 | 1.43008 | 1.42866
298.15 K | 1.4429 | 1.43967 | 1.43566 | 1.43245 | 1.4305 | 1.429 | 1.4289 | 1.42701
303.15 K | 1.44135 | 1.43785 | 1.43417 | 1.43096 | 1.42927 | 1.42774 | 1.42734 | 1.42571
308.15 K | 1.43955 | 1.43622 | 1.43239 | 1.42919 | 1.42752 | 1.426 | 1.42565 | 1.42397
313.15 K | 1.43771 | 1.43437 | 1.43055 | 1.42738 | 1.42572 | 1.4242 | 1.42386 | 1.42219
318.15 K | 1.43584 | 1.43252 | 1.42875 | 1.42557 | 1.42392 | 1.42243 | 1.42208 | 1.42043

OCCCO [propan-1,3-diol]
refractive index
Details | Wavelength=404.7 nm | Wavelength=435.8 nm | Wavelength=486.1 nm | Wavelength=546.1 nm | Wavelength=587.6 nm | Wavelength=632.8 nm | Wavelength=644 nm | Wavelength=706.5 nm
293.15 K | 1.45177 | 1.44842 | 1.4444 | 1.44112 | 1.43939 | 1.43781 | 1.43746 | 1.43577
298.15 K | 1.45037 | 1.447 | 1.44301 | 1.43975 | 1.43802 | 1.43645 | 1.43611 | 1.43441
303.15 K | 1.44902 | 1.44566 | 1.44168 | 1.43844 | 1.43671 | 1.43514 | 1.4348 | 1.43312
308.15 K | 1.44755 | 1.44419 | 1.44027 | 1.43699 | 1.43529 | 1.43375 | 1.4334 | 1.4317
313.15 K | 1.44615 | 1.4428 | 1.43888 | 1.43562 | 1.43392 | 1.43238 | 1.43203 | 1.43035
318.15 K | 1.44474 | 1.44141 | 1.43754 | 1.43429 | 1.43261 | 1.43109 | 1.43075 | 1.42908
